Legend:
[1] = target: Glucagon receptor (Homo sapiens, UniProt P47871); assay: In vitro binding affinity against human glucagon receptor (h-GlucR) was determined
[2] = target: Adenylate cyclase; assay: In vitro inhibitory activity against glucagon induced human adenylate cyclase; assay type: protein assay
[3] = target: Adenylate cyclase; assay: In vitro inhibitory activity against glucagon induced monkey adenylate cyclase; assay type: protein assay, Cercopithecidae
[4] = system: Rattus norvegicus; assay: Percent reduction of glucagon induced glucose excursion by the compound after an i.v. dose of 50 mg/kg to rats; assay type: functional; conditions: route intravenous
[5] = Oral bioavailability; assay type: ADME, organism-based; conditions: eutheria, in vivo

Glucagon receptor, sequence (P47871 whole entry): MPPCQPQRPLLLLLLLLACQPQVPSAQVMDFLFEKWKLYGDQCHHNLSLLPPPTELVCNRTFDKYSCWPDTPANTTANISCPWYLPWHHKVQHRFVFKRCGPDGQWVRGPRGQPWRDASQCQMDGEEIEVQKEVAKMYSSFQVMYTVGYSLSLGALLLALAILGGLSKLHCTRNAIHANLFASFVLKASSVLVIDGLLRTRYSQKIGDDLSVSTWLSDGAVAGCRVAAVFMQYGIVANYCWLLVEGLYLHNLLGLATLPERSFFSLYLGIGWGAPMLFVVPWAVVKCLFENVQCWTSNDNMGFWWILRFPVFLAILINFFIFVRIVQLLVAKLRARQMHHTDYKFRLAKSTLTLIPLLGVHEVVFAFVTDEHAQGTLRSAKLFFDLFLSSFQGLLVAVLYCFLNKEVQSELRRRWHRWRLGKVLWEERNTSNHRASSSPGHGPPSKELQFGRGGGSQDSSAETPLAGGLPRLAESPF

SMILES	Ki [1] [nM]	Ki [2] [nM]	Ki [3] [nM]	bioavailability [5] [%]	Reduction [4] [%]
CCCCCCC(Cc1ccc(C(=O)NCCC(=O)O)cc1)C(=O)Nc1ccc(-c2cc3ccccc3o2)cc1 (stereo not given)	6	20			
CC(C)(C)c1ccc(C(Cc2ccc(C(=O)NCCC(=O)O)cc2)C(=O)Nc2ccc(-c3cc4ccccc4o3)cc2)cc1 (stereo not given)	4	29	69	< 5	50
CC(C)(C)c1ccc(C(Oc2ccc(C(=O)NCC(F)C(=O)O)cc2)C(=O)Nc2ccc(-c3ccccc3)cc2)cc1 (stereo not given)	26	> 2000			
CCCCCCC(Oc1ccc(C(=O)NCCC(=O)O)cc1)C(=O)Nc1ccc(-c2cc3ccccc3o2)cc1 (stereo not given)	3	17			
CC(C)(C)c1ccc(C(Oc2ccc(C(=O)NCC(O)C(=O)O)cc2)C(=O)Nc2ccc(-c3ccccc3)cc2)cc1 (stereo not given)	112	> 2000			
CC(C)(C)[C@H]1CC[C@H](N(Cc2ccc(C(=O)NCCC(=O)O)cc2)C(=O)Nc2ccc(OC(F)(F)F)cc2)CC1	63	254			
Cc1ccc(N2CCN(C(=O)C(Cc3ccc(C(=O)NCCC(=O)O)cc3)c3ccc(C(C)(C)C)cc3)CC2)cc1 (stereo not given)	400	> 2000			
CCN1CCN(C(=O)C(Cc2ccc(C(=O)NCCC(=O)O)cc2)c2ccc(C(C)(C)C)cc2)CC1 (stereo not given)	> 5000	> 2000			
CC(C)(C)c1ccc(C(Oc2ccc(C(=O)NCCC(=O)O)cc2)C(=O)Nc2ccc(-c3ccccc3)cc2)cc1 (stereo not given)	9	144			
CC(C)(C)c1ccc(C(Oc2ccc(C(=O)Nc3nn[nH]n3)cc2)C(=O)Nc2ccc(-c3ccccc3)cc2)cc1 (stereo not given)	66	317			
CCCCCCC(Oc1ccc(C(=O)NCCC(=O)O)cc1)C(=O)Nc1ccc(-c2ccc(Cl)cc2Cl)cc1 (stereo not given)	6	14			

The next lines start with results.

Ki [1] [nM]	Ki [2] [nM]	Ki [3] [nM]	bioavailability [5] [%]	SMILES	Reduction [4] [%]
11	610			CC(C)(C)c1ccc(C(Cc2ccc(C(=O)NCCC(=O)O)cc2)C(=O)Nc2cnc3ccccc3c2)cc1 (stereo not given)	
6	33			CC(C)(C)c1ccc(C(Cc2ccc(C(=O)NCCC(=O)O)cc2)C(=O)Nc2ccc(-c3ccc(Cl)cc3Cl)cc2)cc1 (stereo not given)	
51	110			CC(C)(C)c1ccc(C(Cc2ccc(C(=O)NCCC(=O)O)cc2)C(=O)Nc2ccc(OC(F)(F)F)cc2)cc1 (stereo not given)	
5000	> 2000			CC(C)(C)c1ccc(C(Cc2ccc(C(=O)NCCC(=O)O)cc2)C(=O)Nc2ccc(COC(F)(F)F)cc2)cc1 (stereo not given)	
80	> 2000			CCc1cccc(NC(=O)C(Cc2ccc(C(=O)NCCC(=O)O)cc2)c2ccc(C(C)(C)C)cc2)c1 (stereo not given)	
26	> 2000			CCc1ccc(NC(=O)C(Cc2ccc(C(=O)NCCC(=O)O)cc2)c2ccc(C(C)(C)C)cc2)cc1 (stereo not given)	
11	300			CC(C)(C)c1ccc(C(Cc2ccc(C(=O)NCCC(=O)O)cc2)C(=O)Nc2ccc(-c3ccccc3)cc2)cc1 (stereo not given)	
73	> 2000			CC(C)(C)c1ccc(C(Cc2ccc(C(=O)NCCC(=O)O)cc2)C(=O)Nc2ccc(N3CCCCC3)cc2)cc1 (stereo not given)	
29	1000			CC(C)(C)c1ccc(C(Cc2ccc(C(=O)NCCC(=O)O)cc2)C(=O)Nc2ccc(CO)cc2)cc1 (stereo not given)	
70	> 2000			CC(C)(C)c1ccc(C(Cc2ccc(C(=O)NCCC(=O)O)cc2)C(=O)Nc2ccc(-n3cccn3)cc2)cc1 (stereo not given)	
